{
  "source": "paper PMC5513037",
  "about": "“Examining the influence of specificity ligands and ATP-competitive ligands on the overall effectiveness of bivalent kinase inhibitors” (Proteome Science, 2017)",
  "assay_in_all_cases": "KAM-matrix competition in K562 lysate;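 for 0.001 uM KAM: median log10 fold change of treatment over DMSO control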;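 for 0.01 uM KAM: median log10 fold change of treatment over DMSO control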;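 for 0.1 uM KAM: median log10 fold change of treatment over DMSO control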;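 for 1 uM KAM: median log10 fold change of treatment over DMSO control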;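 for 10 uM KAM: median log10 fold change of treatment over DMSO control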",
  "assay_type_in_all_cases": "binding",
  "key": {"[1]": {"target": "T1, CAMKK2 (Homo sapiens, UniProt Q96RR4)", "T1 construct": "endogenous in cells; host or cells: K562", "T1 sequence (Q96RR4 whole entry)": "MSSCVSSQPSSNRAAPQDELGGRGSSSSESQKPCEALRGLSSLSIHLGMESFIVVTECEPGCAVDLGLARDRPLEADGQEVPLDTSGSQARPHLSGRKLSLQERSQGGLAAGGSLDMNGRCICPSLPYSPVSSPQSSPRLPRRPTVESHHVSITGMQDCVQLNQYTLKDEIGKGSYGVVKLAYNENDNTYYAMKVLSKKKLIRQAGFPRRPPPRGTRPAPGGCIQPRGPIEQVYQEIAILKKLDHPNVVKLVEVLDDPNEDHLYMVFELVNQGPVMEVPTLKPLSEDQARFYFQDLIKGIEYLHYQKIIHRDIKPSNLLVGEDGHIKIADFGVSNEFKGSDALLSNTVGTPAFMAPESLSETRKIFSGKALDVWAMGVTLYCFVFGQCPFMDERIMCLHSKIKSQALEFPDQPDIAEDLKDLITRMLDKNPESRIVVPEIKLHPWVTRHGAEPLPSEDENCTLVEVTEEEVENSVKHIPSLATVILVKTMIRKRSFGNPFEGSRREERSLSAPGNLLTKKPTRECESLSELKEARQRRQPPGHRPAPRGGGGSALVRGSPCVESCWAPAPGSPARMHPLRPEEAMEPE", "experimental": "(§1) Supplement 12953_2017_125_MOESM1_ESM.zip/MS_Supp Info.xlsx, sheet \"KAM\" | column: 10 uM KAM; 1 uM KAM; 0.1 uM KAM; 0.01 uM KAM; 0.001 uM KAM; RB50"}, "[2]": {"target": "T2, MAP3K6 (Homo sapiens, UniProt O95382)", "T2 construct": "endogenous in cells; host or cells: K562", "T2 sequence (O95382 1-1288)": "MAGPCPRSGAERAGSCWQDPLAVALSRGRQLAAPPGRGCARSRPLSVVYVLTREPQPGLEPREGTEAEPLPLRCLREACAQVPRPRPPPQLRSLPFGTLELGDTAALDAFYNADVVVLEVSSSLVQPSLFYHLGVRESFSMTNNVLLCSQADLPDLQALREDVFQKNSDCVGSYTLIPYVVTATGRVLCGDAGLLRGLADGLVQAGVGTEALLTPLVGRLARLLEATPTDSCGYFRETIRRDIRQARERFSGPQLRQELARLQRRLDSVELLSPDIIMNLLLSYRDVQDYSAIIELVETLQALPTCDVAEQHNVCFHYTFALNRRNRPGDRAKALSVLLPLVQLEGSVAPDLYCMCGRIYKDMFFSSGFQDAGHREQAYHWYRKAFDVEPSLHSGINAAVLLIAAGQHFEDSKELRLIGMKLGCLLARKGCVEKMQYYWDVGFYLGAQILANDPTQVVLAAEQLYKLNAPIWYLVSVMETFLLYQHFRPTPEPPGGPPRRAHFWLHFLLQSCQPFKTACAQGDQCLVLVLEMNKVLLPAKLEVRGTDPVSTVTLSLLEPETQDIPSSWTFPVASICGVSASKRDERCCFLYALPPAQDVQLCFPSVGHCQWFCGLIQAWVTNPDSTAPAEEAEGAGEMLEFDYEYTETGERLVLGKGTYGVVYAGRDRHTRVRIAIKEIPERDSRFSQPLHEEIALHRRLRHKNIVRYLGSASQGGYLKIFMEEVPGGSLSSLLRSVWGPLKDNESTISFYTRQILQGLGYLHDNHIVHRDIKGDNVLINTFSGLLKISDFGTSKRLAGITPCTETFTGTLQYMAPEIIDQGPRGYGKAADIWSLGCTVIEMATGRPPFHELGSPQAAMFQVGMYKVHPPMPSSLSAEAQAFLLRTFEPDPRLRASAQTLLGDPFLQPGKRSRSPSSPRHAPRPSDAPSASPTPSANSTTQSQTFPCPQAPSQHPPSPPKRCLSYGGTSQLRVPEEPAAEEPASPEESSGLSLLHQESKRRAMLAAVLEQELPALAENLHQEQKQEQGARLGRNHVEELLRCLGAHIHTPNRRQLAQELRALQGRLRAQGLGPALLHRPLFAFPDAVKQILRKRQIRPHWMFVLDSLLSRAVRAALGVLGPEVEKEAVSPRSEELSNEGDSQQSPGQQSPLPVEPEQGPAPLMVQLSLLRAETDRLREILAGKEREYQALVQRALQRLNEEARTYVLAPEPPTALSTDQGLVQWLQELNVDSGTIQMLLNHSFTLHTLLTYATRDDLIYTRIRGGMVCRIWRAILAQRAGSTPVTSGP", "experimental": "as §1"}, "[3]": {"target": "T3, MAPK6 (Homo sapiens, UniProt Q16659)", "T3 construct": "endogenous in cells; host or cells: K562", "T3 sequence (Q16659 whole entry)": "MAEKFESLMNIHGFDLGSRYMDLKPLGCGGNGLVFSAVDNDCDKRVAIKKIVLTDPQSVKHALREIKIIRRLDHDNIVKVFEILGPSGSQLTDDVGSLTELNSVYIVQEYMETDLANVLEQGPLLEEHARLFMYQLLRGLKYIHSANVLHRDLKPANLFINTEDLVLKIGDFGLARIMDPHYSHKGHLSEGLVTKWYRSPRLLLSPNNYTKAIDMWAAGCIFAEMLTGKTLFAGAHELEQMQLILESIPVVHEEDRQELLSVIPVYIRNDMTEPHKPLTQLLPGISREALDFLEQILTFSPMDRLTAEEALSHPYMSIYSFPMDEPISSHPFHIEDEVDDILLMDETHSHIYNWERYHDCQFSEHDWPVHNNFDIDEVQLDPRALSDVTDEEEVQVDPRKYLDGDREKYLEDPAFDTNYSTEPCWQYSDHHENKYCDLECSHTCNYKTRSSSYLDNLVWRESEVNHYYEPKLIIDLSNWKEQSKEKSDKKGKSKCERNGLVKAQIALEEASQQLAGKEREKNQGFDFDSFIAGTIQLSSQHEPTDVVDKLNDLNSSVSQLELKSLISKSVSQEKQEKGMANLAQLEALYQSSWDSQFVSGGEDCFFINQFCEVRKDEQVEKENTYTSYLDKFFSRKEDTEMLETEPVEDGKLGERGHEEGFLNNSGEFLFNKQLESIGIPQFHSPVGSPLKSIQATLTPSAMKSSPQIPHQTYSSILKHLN", "experimental": "as §1"}, "[4]": {"target": "T4, MARK4 (Homo sapiens, UniProt Q96L34)", "T4 construct": "K562 cell pellets were thawed on ice and resuspended in cold Lysis buffer; endogenous in cells; host or cells: K562", "T4 sequence (Q96L34 1-752)": "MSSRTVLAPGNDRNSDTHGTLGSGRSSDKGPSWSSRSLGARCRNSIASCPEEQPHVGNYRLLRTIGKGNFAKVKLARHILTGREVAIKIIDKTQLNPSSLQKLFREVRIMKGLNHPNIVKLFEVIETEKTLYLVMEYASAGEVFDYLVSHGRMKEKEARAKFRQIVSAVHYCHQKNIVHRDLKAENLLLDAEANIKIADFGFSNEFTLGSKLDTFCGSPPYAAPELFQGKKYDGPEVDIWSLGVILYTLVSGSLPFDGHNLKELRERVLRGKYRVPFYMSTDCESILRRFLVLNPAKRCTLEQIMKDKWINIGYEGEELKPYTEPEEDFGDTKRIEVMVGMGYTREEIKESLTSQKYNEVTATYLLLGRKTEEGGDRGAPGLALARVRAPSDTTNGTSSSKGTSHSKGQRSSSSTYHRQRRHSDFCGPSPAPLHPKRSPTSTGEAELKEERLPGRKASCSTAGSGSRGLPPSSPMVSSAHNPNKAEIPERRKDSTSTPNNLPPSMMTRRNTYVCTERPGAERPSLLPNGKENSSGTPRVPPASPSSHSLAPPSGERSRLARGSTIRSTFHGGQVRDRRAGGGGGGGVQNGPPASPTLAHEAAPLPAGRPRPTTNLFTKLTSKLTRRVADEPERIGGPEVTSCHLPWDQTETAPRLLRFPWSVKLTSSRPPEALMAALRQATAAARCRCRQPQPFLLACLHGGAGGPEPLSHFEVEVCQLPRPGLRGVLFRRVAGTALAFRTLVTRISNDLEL", "experimental": "as §1"}, "[5]": {"target": "T5, RIOK2 (Homo sapiens, UniProt Q9BVS4)", "T5 construct": "endogenous in cells; host or cells: K562", "experimental": "as §1"}, "[6]": {"target": "T6, SMG1 (Homo sapiens, UniProt Q96Q15)", "T6 construct": "endogenous in cells; host or cells: K562", "T6 sequence (Q96Q15 whole entry)": "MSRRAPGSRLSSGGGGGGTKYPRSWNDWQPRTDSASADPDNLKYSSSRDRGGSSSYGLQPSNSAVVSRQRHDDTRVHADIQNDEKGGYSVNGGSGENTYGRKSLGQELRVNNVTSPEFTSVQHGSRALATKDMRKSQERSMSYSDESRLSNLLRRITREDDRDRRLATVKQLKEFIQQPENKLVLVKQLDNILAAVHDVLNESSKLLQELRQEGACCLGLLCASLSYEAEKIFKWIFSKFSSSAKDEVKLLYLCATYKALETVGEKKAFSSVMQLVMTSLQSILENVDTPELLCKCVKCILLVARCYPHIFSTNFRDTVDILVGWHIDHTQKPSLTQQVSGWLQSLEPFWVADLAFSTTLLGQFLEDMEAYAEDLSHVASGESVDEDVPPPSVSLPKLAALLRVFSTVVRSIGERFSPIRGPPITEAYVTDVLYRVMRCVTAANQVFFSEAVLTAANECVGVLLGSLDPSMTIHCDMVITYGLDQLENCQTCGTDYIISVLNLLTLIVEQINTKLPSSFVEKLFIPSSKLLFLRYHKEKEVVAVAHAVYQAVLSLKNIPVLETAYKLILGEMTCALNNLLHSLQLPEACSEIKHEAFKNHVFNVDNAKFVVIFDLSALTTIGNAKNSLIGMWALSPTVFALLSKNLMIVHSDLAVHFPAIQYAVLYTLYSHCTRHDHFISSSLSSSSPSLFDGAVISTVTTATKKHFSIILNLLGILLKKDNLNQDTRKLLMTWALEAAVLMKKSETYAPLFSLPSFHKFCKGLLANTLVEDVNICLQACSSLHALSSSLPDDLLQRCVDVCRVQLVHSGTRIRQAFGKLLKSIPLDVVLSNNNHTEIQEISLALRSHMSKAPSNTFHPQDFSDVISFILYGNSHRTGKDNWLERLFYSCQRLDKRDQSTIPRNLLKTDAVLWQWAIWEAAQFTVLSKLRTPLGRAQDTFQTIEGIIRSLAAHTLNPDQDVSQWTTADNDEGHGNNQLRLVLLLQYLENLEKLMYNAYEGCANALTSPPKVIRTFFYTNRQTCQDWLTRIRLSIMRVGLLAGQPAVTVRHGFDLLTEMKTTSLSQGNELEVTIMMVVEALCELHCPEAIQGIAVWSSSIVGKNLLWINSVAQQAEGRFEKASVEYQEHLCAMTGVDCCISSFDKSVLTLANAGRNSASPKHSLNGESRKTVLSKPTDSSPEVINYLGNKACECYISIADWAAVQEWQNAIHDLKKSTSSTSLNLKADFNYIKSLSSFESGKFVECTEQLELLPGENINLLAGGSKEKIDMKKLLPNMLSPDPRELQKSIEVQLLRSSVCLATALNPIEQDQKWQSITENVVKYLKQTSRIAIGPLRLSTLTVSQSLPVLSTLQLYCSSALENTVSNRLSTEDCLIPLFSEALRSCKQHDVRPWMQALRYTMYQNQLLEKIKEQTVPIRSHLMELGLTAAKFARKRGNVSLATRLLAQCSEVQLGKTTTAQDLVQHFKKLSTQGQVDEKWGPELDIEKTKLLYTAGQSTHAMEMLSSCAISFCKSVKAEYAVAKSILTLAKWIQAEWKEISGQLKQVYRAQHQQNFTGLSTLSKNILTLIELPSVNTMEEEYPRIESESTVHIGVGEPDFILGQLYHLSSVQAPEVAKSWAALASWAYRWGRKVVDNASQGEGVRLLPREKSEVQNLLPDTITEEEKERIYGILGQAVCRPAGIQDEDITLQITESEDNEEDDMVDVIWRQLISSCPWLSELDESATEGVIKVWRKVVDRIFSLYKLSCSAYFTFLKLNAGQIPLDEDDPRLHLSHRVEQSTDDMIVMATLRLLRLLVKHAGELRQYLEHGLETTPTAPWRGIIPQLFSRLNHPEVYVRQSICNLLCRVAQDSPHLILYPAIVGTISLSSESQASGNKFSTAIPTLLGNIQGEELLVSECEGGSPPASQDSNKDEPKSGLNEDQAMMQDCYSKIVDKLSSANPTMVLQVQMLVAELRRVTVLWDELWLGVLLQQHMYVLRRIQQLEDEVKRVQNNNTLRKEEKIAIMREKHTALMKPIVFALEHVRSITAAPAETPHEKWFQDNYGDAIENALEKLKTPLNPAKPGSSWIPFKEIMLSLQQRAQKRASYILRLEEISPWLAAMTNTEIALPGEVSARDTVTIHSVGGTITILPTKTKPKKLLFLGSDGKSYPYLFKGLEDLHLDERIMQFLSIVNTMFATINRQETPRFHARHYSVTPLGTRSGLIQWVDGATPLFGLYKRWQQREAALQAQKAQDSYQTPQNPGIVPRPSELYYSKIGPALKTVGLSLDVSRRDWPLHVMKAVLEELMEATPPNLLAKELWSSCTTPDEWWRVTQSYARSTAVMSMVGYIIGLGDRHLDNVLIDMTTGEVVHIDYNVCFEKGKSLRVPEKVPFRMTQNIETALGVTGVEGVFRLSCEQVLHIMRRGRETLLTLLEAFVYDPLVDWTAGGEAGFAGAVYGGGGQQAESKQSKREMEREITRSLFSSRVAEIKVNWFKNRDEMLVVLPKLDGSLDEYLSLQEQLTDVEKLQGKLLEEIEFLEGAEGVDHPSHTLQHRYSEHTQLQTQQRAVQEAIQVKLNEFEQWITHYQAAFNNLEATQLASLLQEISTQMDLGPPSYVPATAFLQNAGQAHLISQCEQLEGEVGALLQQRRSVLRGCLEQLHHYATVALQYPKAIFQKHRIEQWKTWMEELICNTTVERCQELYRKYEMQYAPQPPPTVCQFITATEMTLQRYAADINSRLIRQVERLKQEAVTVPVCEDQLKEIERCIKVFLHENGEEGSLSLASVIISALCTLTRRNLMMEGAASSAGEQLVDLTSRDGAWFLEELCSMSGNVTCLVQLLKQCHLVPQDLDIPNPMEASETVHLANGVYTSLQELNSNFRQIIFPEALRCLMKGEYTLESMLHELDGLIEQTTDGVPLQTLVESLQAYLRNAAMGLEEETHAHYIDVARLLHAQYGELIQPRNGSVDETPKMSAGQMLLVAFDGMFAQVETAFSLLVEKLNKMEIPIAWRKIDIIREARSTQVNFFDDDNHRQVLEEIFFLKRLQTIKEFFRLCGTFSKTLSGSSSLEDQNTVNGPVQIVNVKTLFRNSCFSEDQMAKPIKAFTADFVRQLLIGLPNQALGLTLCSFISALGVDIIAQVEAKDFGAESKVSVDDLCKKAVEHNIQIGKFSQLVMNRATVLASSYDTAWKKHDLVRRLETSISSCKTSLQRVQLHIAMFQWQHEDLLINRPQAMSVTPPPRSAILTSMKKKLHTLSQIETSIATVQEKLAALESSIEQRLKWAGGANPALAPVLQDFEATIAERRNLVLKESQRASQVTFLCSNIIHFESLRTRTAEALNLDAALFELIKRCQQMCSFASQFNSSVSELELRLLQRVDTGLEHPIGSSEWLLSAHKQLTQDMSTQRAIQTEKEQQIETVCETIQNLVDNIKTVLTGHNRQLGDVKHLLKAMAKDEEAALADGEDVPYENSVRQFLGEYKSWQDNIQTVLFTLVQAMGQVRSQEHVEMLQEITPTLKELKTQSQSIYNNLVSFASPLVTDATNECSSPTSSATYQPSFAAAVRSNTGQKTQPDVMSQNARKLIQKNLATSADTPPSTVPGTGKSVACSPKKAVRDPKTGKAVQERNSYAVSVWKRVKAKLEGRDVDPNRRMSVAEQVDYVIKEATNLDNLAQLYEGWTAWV", "experimental": "as §1"}, "[7]": {"settings": "read-out: RB50 (the source's name)"}},
  "data": [
    {"smiles": "N#CCc1ccc(Nc2nc(NCCCN)cc(Nc3cc(C4CC4)[nH]n3)n2)cc1", "note": "[KAM]", "values": [
      {"measurement": "median Log10 fold change", "setting": "[1]; 0.001 uM KAM", "result": 0.007982},
      {"measurement": "median Log10 fold change", "setting": "[1]; 0.01 uM KAM", "result": -0.006148},
      {"measurement": "median Log10 fold change", "setting": "[1]; 0.1 uM KAM", "result": -0.132},
      {"measurement": "median Log10 fold change", "setting": "[1]; 1 uM KAM", "result": -0.4329},
      {"measurement": "median Log10 fold change", "setting": "[1]; 10 uM KAM", "result": -0.5591},
      {"measurement": "IC50", "setting": "[1]; [7]", "result": 0.553, "unit": "µM"},
      {"measurement": "median Log10 fold change", "setting": "[2]; 0.001 uM KAM", "result": -0.04109},
      {"measurement": "median Log10 fold change", "setting": "[2]; 0.01 uM KAM", "result": -0.01116},
      {"measurement": "median Log10 fold change", "setting": "[2]; 0.1 uM KAM", "result": -0.09429},
      {"measurement": "median Log10 fold change", "setting": "[2]; 1 uM KAM", "result": -0.1699},
      {"measurement": "median Log10 fold change", "setting": "[2]; 10 uM KAM", "result": -0.3363},
      {"measurement": "IC50", "setting": "[2]; [7]", "result": 5.37, "unit": "µM"},
      {"measurement": "median Log10 fold change", "setting": "[3]; 0.001 uM KAM", "result": 0.01888},
      {"measurement": "median Log10 fold change", "setting": "[3]; 0.01 uM KAM", "result": 0.003428},
      {"measurement": "median Log10 fold change", "setting": "[3]; 0.1 uM KAM", "result": -0.1658},
      {"measurement": "median Log10 fold change", "setting": "[3]; 1 uM KAM", "result": -0.3554},
      {"measurement": "median Log10 fold change", "setting": "[3]; 10 uM KAM", "result": -0.4572},
      {"measurement": "IC50", "setting": "[3]; [7]", "result": 0.763, "unit": "µM"},
      {"measurement": "median Log10 fold change", "setting": "[4]; 0.001 uM KAM", "result": -0.09809},
      {"measurement": "median Log10 fold change", "setting": "[4]; 0.01 uM KAM", "result": -0.06359},
      {"measurement": "median Log10 fold change", "setting": "[4]; 0.1 uM KAM", "result": -0.2055},
      {"measurement": "median Log10 fold change", "setting": "[4]; 1 uM KAM", "result": -0.3566},
      {"measurement": "median Log10 fold change", "setting": "[4]; 10 uM KAM", "result": -0.4457},
      {"measurement": "IC50", "setting": "[4]; [7]", "result": 0.604, "unit": "µM"},
      {"measurement": "median Log10 fold change", "setting": "[5]; 0.001 uM KAM", "result": -0.01457},
      {"measurement": "median Log10 fold change", "setting": "[5]; 0.01 uM KAM", "result": -0.03291},
      {"measurement": "median Log10 fold change", "setting": "[5]; 0.1 uM KAM", "result": -0.138},
      {"measurement": "median Log10 fold change", "setting": "[5]; 1 uM KAM", "result": -0.3574},
      {"measurement": "median Log10 fold change", "setting": "[5]; 10 uM KAM", "result": -0.5027},
      {"measurement": "IC50", "setting": "[5]; [7]", "result": 0.774, "unit": "µM"},
      {"measurement": "IC50", "setting": "[6]; KAM 0.001-10 uM, read-out: RB50 (the source's name)", "result": "> 10", "unit": "µM"},
      {"measurement": "0.001 uM KAM", "setting": "[6]; relative to 0 uM KAM = 0", "result": -0.09325},
      {"measurement": "0.01 uM KAM", "setting": "[6]; relative to 0 uM KAM = 0", "result": 0.027},
      {"measurement": "0.1 uM KAM", "setting": "[6]; relative to 0 uM KAM = 0", "result": 0.0044},
      {"measurement": "1 uM KAM", "setting": "[6]; relative to 0 uM KAM = 0", "result": 0.06163},
      {"measurement": "10 uM KAM", "setting": "[6]; relative to 0 uM KAM = 0", "result": 0.05027}
    ]}
  ]
}
